# From US20080299195A1, “USE OF RANOLAZINE FOR ELEVATED BRAIN-TYPE NATRIURETIC PEPTIDE” (priority 2007, published 2008)
# System: patients with non-ST elevation ACS
# Test: MERLIN-TIMI 36 trial: randomized, double-blind, placebo-controlled trial of ranolazine, stratified by baseline BNP
# Assay type: in vivo, human
# Conditions: ranolazine vs placebo
# From the text: Ranolazine is believed to exert anti-ischemic effects through a reduction in myocardial cellular sodium and calcium overload with a consequent reduction in wall stress. B-type natriuretic peptide (BNP) is released in response to increased wall stress and is a potent indicator of risk in acute coronary syndromes (ACS). This study was a prospective evaluation of the interaction between BNP and the effect of ranolazine as part of a randomized, double-blind, placebo-controlled trial.
# Patients with a non-ST elevation acute coronary syndrome (NSTEACS), refers to patients with chest discomfort or anginal equivalent occurring at rest, lasting ≧10 minutes, and consistent with myocardial ischemia, and the presence of ischemic symptoms (≧5 minutes) at rest within 48 hours of admittance which may include index episode, and having at least one of the following indicators of moderate-high risk: • Elevated cardiac troponin (above local MI limit) or CK-MB (>ULN) • ST-depression (horizontal or down-sloping) >0.1 mV • Diabetes mellitus (requiring insulin or oral therapy) • A Risk Score of >3 wherein one point is assigned for each of the following variables and a total score calculated as the arithmetic sum: • Age >65 years; • Known CAD (prior MI, CABG, PCI or angiographic stenosis ≧50%); • Three or more cardiac risk factors (DM, elevated cholesterol, hypertension, family history); • More than one episode of ischemic discomfort at rest in the prior 24 hours; • Chronic aspirin use in the 7 days preceding onset of symptoms; • ST segment depression ≧0.05 mV; and • Elevated cardiac troponin or CK-MB.
# Plasma BNP were measured (ADVIA® BNP) at baseline (N=4543), 14 days (N=4079), and the Final Visit (N=3328) of the patients with non-ST elevation ACS randomized to ranolazine or placebo in the MERLIN-TIMI 36 trial. During the trial 200 mg of ranolazine (or matching placebo) was administered intravenously over 1 hour, followed by an 80 mg/hr intravenous infusion, which was reduced to 40 mg/hr for patients with an estimated creatinine clearance of less than […] (<0.50 mL/s), and was continued for 12 to 96 hours. On or near the completion (about 1 hour before completion) of the infusion, transition from the IV solution to ranolazine extended release (or matching placebo) occurred and ranolazine extended release (or matching placebo) continued orally at a dose of 1000 mg twice daily until the end of the study. [Morrow, et al., J. Am. Med. Assoc'n. 297 (16), 1775-1783, 2007]. Patients were stratified using BNP >80 pg/mL based upon prior work with this assay. The primary endpoint of the trial was a composite of cardiovascular death, myocardial infarction, or recurrent ischemia (CVD/MI/RI).
structure (smiles),measurement,setting,value
"COc1ccccc1OCC(O)CN1CCN(CC(=O)Nc2c(C)cccc2C)CC1 (racemic) [ranolazine, (±)-N-(2,6-dimethylphenyl)-4-[2-hydroxy-3-(2-methoxyphenoxy)propyl]-1-piperazine-acetamide]",HR for endpoint component of worsening angina,"patients with BNP>80 pg/mL, CI 0.35-0.84, p=0.005",0.55
same,"HR for primary endpoint (composite of cardiovascular death, myocardial infarction, or recurrent ischemia, CVD/MI/RI)","patients with BNP>80 pg/mL, IV 200 mg over 1 h, then 80 mg/hr for 12 to 96 hours, then extended release 1000 mg twice daily orally, 95% CI 0.66-0.94, p=0.009",0.79
same,effect on primary endpoint (CVD/MI/RI),"patients with a negative BNP result, p-interaction=0.052",lack of detectable effect
same,HR for endpoint component of worsening angina,"95% CI 0.63-1.28, p=0.55, p-interaction 0.079",0.90
